{"source": "patent US20210206875A1", "about": "“ERBB-2 TARGETING AGENT AND A BISPECIFIC ANTIBODY WITH ANTIGEN-BINDING SITES THAT BIND AN EPITOPE ON AN EXTRACELLULAR PART OF ERB-2 AND ERBB-3, FOR TREATMENT OF AN INDIVIDUAL WITH AN ERBB-2, ERBB-2/ERBB-3 POSITIVE TUMOUR” (Merus N.V., priority 2017, published 2021)", "key": {"[1]": {"system": "HER2 overexpressing cells (SK-BR-3, BT-474, N87)", "test": "Drug combinations with PB4188 in vitro (isobolograms)", "format": "cell-based, human", "conditions": "in the presence of HRG, matrigel or HRG stress concentrations", "experimental": "Moreover, combination with chemotherapeutic drugs and cyclin inhibitors were tested. Combinations were tested on HER2 overexpressing cells growing in the presence of HRG in matrigel (SK-BR-3 and BT-474) or in the presence of HRG stress concentrations (N87 and SK-BR-3 as described in proliferation assays). The inhibitory effect of drug combinations was tested by imaging or by measuring proliferation using Alamar Blue as described herein before. […] The extent of growth inhibition obtained with each combination was calculated. […] The inhibition values of the combination experiments were used by CHALICE™ Analyzer software to generate the isobolograms."}, "[2]": {"system": "intracranial ST1360B PDX tumors", "test": "Intracranial ST1360B PDX tumor model", "format": "in vivo, mouse", "experimental": "The viability of total cells was greater than 80%. […] The cells were kept on ice until inoculation.\nDrugs were diluted in sterile saline before each dosing. […] The dosing volume was 5.0 mL/kg.\nThe fixative: tissue ratio was at least 20:1.\nImage analysis was performed using Horos."}, "[3]": {"conditions": "compared to vehicle treated mice"}}, "note": "“And” between values parts separate entries of the source, which are not always exact repeats. Equal values may be shown once.", "data": [{"molecule": "CS(=O)(=O)CCNCc1ccc(-c2ccc3ncnc(Nc4ccc(OCc5cccc(F)c5)c(Cl)c4)c3c2)o1", "note": "[lapatinib]", "values": [{"measurement": "drug combination with PB4188 (isobologram analysis)", "setting": "[1]", "value": "synergistic"}]}, {"molecule": "NC1(c2ccc(-c3nc4ccn5c(=O)[nH]nc5c4cc3-c3ccccc3)cc2)CCC1", "note": "[MK-2206]", "values": [{"measurement": "drug combination with PB4188 (isobologram analysis)", "setting": "[1]", "value": "synergistic"}]}, {"molecule": "O=C(CCCCCCC(=O)Nc1ccccc1)NO", "note": "[vorinostat]", "values": [{"measurement": "drug combination with PB4188 (isobologram analysis)", "setting": "[1]", "value": "synergistic"}]}, {"molecule": "CC(=O)O[C@H]1C(=O)[C@@]2(C)[C@H]([C@H](OC(=O)c3ccccc3)[C@]3(O)C[C@H](OC(=O)[C@H](O)[C@@H](NC(=O)c4ccccc4)c4ccccc4)C(C)=C1C3(C)C)[C@]1(OC(C)=O)CO[C@@H]1C[C@@H]2O", "note": "[paclitaxel]", "values": [{"measurement": "drug combination with PB4188 (isobologram analysis)", "setting": "[1]", "value": "synergistic"}]}, {"molecule": "trastuzumab-emtansine [T-DM1, reference compound]", "values": [{"measurement": "tumor growth by T2-weighted MRI", "setting": "[2]; [3]", "value": "Tumor growth was inhibited"}, {"measurement": "mean tumor volume 10 days post therapy", "setting": "[2]; compared to vehicle treated mice, p<0.05", "value": "significantly smaller"}]}, {"molecule": "CCOc1cc2ncc(C#N)c(Nc3ccc(OCc4ccccn4)c(Cl)c3)c2cc1NC(=O)/C=C/CN(C)C", "note": "[neratinib]", "values": [{"measurement": "drug combination with PB4188 (isobologram analysis)", "setting": "[1]", "value": "synergistic"}]}, {"molecule": "CO[C@H]1C[C@@H]2CC[C@@H](C)[C@@](O)(O2)C(=O)C(=O)N2CCCC[C@H]2C(=O)O[C@H]([C@H](C)C[C@@H]2CC[C@@H](OCCO)[C@H](OC)C2)CC(=O)[C@H](C)/C=C(\\C)[C@@H](O)[C@@H](OC)C(=O)[C@H](C)C[C@H](C)/C=C/C=C/C=C/1C", "note": "[everolimus]", "values": [{"measurement": "drug combination with PB4188 (isobologram analysis)", "setting": "[1]", "value": "synergistic"}]}, {"molecule": "Cc1nc(NC(=O)N2CCC[C@H]2C(N)=O)sc1-c1ccnc(C(C)(C)C(F)(F)F)c1", "note": "[BYL719]", "values": [{"measurement": "drug combination with PB4188 (isobologram analysis)", "setting": "[1]", "value": "synergistic"}]}, {"molecule": "MCLA-128: bispecific antibody MCLA-128 directed against HER2 and HER3", "values": [{"measurement": "Brain edema score day 3", "setting": "[2]; MRI, scale 0-4 (0 no, 4 massive brain edema), individual mice, day 3 post initiation of therapy", "value": "2 (2×) and 0 (2×) and 1 (4×)"}, {"measurement": "Brain edema score day 7", "setting": "[2]; MRI, scale 0-4, individual mice, day 7", "value": "2 (4×) and 0 (2×) and 3 and 1"}, {"measurement": "Brain edema score day 10", "setting": "[2]; MRI, scale 0-4, individual mice, day 10", "value": "2 (4×) and 0 (2×) and 3 and 1"}, {"measurement": "Brain edema score day 14", "setting": "[2]; MRI, scale 0-4, individual mice, day 14", "value": "1 (4×) and 0 and 3 (3×)"}, {"measurement": "Brain edema score day 21", "setting": "[2]; MRI, scale 0-4, individual mice, day 21", "value": "2 (2×) and 1 (3×) and 3 (3×)"}, {"measurement": "Brain edema score day 28", "setting": "[2]; MRI, scale 0-4, individual mice, day 28", "value": "3 (4×) and 4"}, {"measurement": "Brain edema score day 35", "setting": "[2]; MRI, scale 0-4, individual mice, day 35", "value": 3}, {"measurement": "Brain edema score day 42", "setting": "[2]; MRI, scale 0-4, individual mice, day 42", "value": 3}, {"measurement": "Brain edema final score", "setting": "[2]; MRI, scale 0-4, individual mice, last MR scan", "value": "3 (4×) and 1 (3×) and 4"}, {"measurement": "tumor growth by T2-weighted MRI", "setting": "[2]; [3]", "value": "tumor growth delay"}, {"measurement": "median survival", "setting": "[2]; post therapy initiation, T-DM1 10 mg/kg qwk, MCLA-128 25 mg/kg twice wk, i.v., vehicle 13 days", "value": 29, "unit": "days"}]}]}
